Laboratory results reported in paper PMC3847553, “Kinetic properties of “dual” orexin receptor antagonists at OX1R and OX2R orexin receptors” (Frontiers in Neuroscience, 2013).
Where two headings read alike, the source gives them in different places.

Key:
mouse OX2R = target: T1, mouse OX2R (Mus musculus, UniProt P58308); test: FLIPR orexin A-stimulated calcium accumulation, mouse OX2R; type: cell-based; conditions: HEK cells
T1 construct: expressed in transfected cells; host or cells: HEK; cells from GNF, San Diego
T1 sequence (P58308 1-460): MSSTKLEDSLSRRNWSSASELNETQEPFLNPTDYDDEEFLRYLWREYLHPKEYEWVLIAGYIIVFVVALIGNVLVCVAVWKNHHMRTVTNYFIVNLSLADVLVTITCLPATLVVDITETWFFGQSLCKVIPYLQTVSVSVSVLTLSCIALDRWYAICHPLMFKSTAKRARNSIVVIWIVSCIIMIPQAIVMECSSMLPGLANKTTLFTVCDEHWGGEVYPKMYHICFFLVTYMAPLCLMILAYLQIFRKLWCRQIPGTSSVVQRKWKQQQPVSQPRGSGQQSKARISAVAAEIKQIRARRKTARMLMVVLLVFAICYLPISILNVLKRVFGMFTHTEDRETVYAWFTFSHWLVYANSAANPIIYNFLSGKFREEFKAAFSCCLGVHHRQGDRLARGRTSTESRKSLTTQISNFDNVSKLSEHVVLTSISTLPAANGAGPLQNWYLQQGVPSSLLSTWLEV
From the text: (§1) Chinese Hamster Ovary (CHO) cells stably transfected with the cDNA encoding the human OX1R (CHO-hOX1) or OX2R (CHO-hOX2) were used (kindly provided by T. Cremer and Dr. S. Geisse, NIBR Basel, Switzerland). For measurements of calcium accumulation using FLIPR® (Fluorescent Imaging Plate Reader) assay, CHO or Human Embryonic Kidney (HEK) cells stably expressing mouse, rat or human OX1R or OX2R (kindly provided by Dr. A. Chen, GNF, San Diego, CA, USA) were used. […] Cells were maintained in a humidified incubator at 37°C in 5% CO2. For crude cell membrane preparations, cells were washed and harvested in 10 mM HEPES (pH 7.5), and centrifuged at 4°C for 5 min at 2500 g. The cell pellet was either stored at −80°C or used directly.
(§2) Cells expressing either human, rat or mouse OX1R or OX2R were seeded at 8,000 cells/well in black 384 well clear bottom plates and incubated overnight at 37°C. The following day, medium was discarded and cells loaded with 50 μ l of 1 mM Fluo-4 AM (Invitrogen F14202) in dimethyl sulfoxide in working buffer (Hanks' balanced salt solution, 10 mM HEPES) and incubated for 60 min at 37°C. The loading buffer was removed and cells were washed with 100 μ l working buffer containing […], 0.1% BSA, and 2.5 mM Probenecid (pH 7.4) to remove the excess Fluo-4 AM. […] The assay plate was then transferred to the Molecular Devices-FLIPR384. The baseline calcium signal was recorded for 10 s, then the antagonist of interest was injected (10 μl at 3 times the final concentration) and the calcium signal recorded every second for 1 min, then every 2 s 40 times.

human OX1R [1] = target: T2, human OX1R (Homo sapiens, UniProt O43613); test: [3H]-BBAC competition binding over time, CHO-hOX1 membranes
T2 construct: expressed in transfected cells; host or cells: CHO; cells from GNF, San Diego
T2 sequence (O43613 1-425): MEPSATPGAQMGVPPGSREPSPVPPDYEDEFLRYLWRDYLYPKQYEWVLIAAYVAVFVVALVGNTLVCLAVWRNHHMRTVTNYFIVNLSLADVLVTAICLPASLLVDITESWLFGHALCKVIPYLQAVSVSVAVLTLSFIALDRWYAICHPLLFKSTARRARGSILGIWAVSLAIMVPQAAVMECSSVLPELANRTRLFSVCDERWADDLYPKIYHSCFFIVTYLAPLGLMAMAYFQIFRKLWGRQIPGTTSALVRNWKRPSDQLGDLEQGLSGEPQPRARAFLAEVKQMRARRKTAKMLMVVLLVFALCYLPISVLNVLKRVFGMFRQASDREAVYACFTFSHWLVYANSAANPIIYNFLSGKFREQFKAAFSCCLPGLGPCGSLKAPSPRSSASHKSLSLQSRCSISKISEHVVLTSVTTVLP
From the text: as §1
(§3) Cell membranes were resuspended in binding assay buffer at 4°C (10 mM HEPES, pH 7.5, 0.5% (w/v) bovine serum albumin (BSA), 5 mM MgCl2, 1 mM CaCl2, and 0.05% Tween 20) and homogenized with a Polytron homogenizer at 50 Hz for 20 s. […] Radioactivity was quantified using a TopCount™ microplate counter (Perkin Elmer).
(§4) All data was analyzed using GraphPad Prism 4.0 (GraphPad, San Diego, USA). The saturation data was fit to a non-linear regression model for saturation binding with consideration for one site binding. […] Competition binding data was fit to a non-linear regression model for competition binding with consideration for variable one site binding with a non-fixed Hill slope.

human OX2R = target: T3, human OX2R (Homo sapiens, UniProt O43614); test: [3H]-BBAC competition binding over time, CHO-hOX2 membranes; conditions: competition for 4.6 nM [3H]-BBAC, 15 min to 4 h, human OX2R
T3 construct: expressed in transfected cells; host or cells: CHO; cells from GNF, San Diego
T3 sequence (O43614 1-444): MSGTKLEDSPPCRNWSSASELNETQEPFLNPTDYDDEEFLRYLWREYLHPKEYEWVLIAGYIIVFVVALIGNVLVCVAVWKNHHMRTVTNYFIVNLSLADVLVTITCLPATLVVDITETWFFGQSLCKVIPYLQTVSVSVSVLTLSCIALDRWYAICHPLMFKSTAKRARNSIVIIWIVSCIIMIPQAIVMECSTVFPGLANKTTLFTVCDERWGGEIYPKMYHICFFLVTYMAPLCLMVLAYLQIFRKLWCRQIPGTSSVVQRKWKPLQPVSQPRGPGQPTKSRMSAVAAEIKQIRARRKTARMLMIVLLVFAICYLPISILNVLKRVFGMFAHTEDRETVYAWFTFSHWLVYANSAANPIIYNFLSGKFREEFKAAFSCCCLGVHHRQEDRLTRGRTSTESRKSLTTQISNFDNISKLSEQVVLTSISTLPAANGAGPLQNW
From the text: as §1, §3, §4

human OX1R [2] = target: T2, human OX1R; test: FLIPR orexin A-stimulated calcium accumulation, human OX1R; type: cell-based; conditions: CHO cells
From the text: as §1, §2

[3] = antagonist incubation 1 h, read-out: pKi (converted)
[4] = antagonist incubation 2 h, read-out: pKi (converted)
[5] = antagonist incubation 4 h, read-out: pKi (converted)
[6] = pKi, antagonist incubation 30 min
[7] = antagonist incubation 30 min, read-out: pKi (converted)
[8] = competition for 4.6 nM [3H]-BBAC, 15 min to 4 h, human OX1R

Structure (SMILES)	Ki (mouse OX2R; [3])	Ki (mouse OX2R; [4])	Ki (mouse OX2R; [5])	Ki (mouse OX2R; [6])	effect of incubation time on competition curves (human OX1R [1])	effect of incubation time on competition curves (human OX2R)	Ki (human OX1R [2]; antagonist incubation 30 min)	Ki (human OX1R [2]; antagonist incubation 1 h)	Ki (human OX1R [2]; antagonist incubation 2 h)	Ki (human OX1R [2]; antagonist incubation 4 h)	Ki (mouse OX2R; [7])	effect of incubation time on competition curves (human OX1R [1]; [8])	pKi (human OX1R [2]; antagonist incubation 1 h)	pKi (human OX1R [2]; antagonist incubation 2 h)	Ki (mouse OX2R; pKi, antagonist incubation 1 h)	Ki (mouse OX2R; pKi, antagonist incubation 2 h)	Ki (mouse OX2R; pKi, antagonist incubation 4 h)
CNC(=O)[C@@H](c1ccccc1)N1CCc2cc(OC)c(OC)cc2[C@@H]1CCc1ccc(C(F)(F)F)cc1 [Almorexant]	9.33 nM	8.13 nM	4.17 nM	19.1 nM	shifted to the left with time moderately	substantially											
Cc1ccc(-c2ncccn2)c(C(=O)N2C[C@H](COc3ccc(F)cn3)CC[C@H]2C)c1 [Filorexant]	2.09 nM	1.45 nM	1.29 nM			shifted to the left over time, even up to 4 h	2.24 nM	1.62 nM	1.66 nM	2.82 nM	2.14 nM	rather insensitive to incubation time					
COc1ccnc(N2CCC3(CCCN(Cc4c[nH]c5ccccc45)C3=O)CC2)n1 [IPSU, 2-((1H-Indol-3-yl)methyl)-9-(4-methoxypyrimidin-2-yl)-2,9-diazaspiro[5.5]undecan-1-one]	79.4 nM	55 nM	60.3 nM			do not show time-dependency	479 nM			724 nM	70.8 nM	do not show time-dependency	6.29 −log M	6.28 −log M			
Cc1nc(C(=O)N2CCCC[C@H]2CNC(=O)c2cccc3occc23)c(-c2ccc(F)cc2)s1 [SB-649868]	2.82 nM	1.17 nM	0.912 nM			binding appeared to be rather stable	0.933 nM	1.35 nM	0.513 nM	0.417 nM	1.82 nM	shifted to the left over time up to 4 h					
Cc1ccc(-n2nccn2)c(C(=O)N2CCN(c3nc4cc(Cl)ccc4o3)CC[C@H]2C)c1 [Suvorexant]				10.2 nM	shifted to the left over time	shifted to the left over time									6.76 nM	5.75 nM	4.47 nM
